Data on two compounds can be found in US20230075368A1, “IDENTIFICATION OF AN EGFR-BIN3 PATHWAY THAT ACTIVELY SUPPRESSES INVASION AND REDUCES TUMOR SIZE IN GLIOBLASTOMA” (The United States Govemment as represented by the …, priority 2020, published 2023).

In one assay the test system is HB-EGF. Kind of assay: ELISA for HB-EGF in supernatants. The class given is cell-based, human. Conditions: tofacitinib 1 μM, 72 hours; GBM12 and GBM6.
Another assay relates to STAT3. Briefly: Western blot of pSTAT3 and STAT3. The assay is classed as cell-based, human. Conditions: tofacitinib 1 μM, 24 hours; GBM12 and GBM6. The protocol:
(§1) Mayo PDX cells were serum starved overnight. Following treatment for specific time, cells were harvested and lysed. The human glioblastoma tissues were ground in liquid nitrogen and then were lysed. […] TGFα antibody was from R&D system.
(§2) . . . […] A similar experiment was performed in GBM6 (FIG. 18F). […] The Western blot images are representative of three independent biological replicates. Actin served as loading control. Data are represented as mean±SEM from three independent experiments. *P<0.05, **P<0.01, ***P<0.001, unpaired two-tailed t-test.

The next assay relates to STAT1. Briefly: Western blot of pSTAT1 and STAT1. The class given is cell-based, human. Particulars: tofacitinib 1 μM, 24 hours; GBM12 and GBM6. The protocol:
as §1, §2

In a further assay the test system is betacellulin. Kind of assay: ELISA for BTC in supernatants. Particulars: tofacitinib 1 μM, 72 hours; GBM12 and GBM6. The assay is classed as cell-based, human. The protocol: Similar experiments were performed in GBM6 (FIG. 20D). […] Similar experiments were performed in GBM6 (FIG. 20F). […] The Western blot images are representative of three independent biological replicates. Actin served as loading control. Data are represented as mean±SEM from three independent experiments. * P<0.05, **P<0.01, *[…], unpaired two-tailed t-test.

The next assay concerns Mayo PDX cells. Briefly: Matrigel invasion assay. The assay is classed as cell-based, human. Conditions: low-dose EGF (5 ng/ml), 24 hours; GBM12 and GBM6.
The test system of a further assay is BIN3 promoter. Kind of assay: ChIP assay of EGR1 occupancy. The class given is cell-based, human. Particulars: EGF, 24 hours; GBM12 and GBM6. The protocol: Chromatin immunoprecipitation (ChIP) assays were performed using a ChIP assay kit (Upstate Biotechnology, Lake Placid, N.Y., USA). Cells were treated with or without EGF for the indicated time points or transfected with indicated vectors for 48 hours followed by cell fixation, lysis, chromatin shearing, antibody incubation and washing according to the manufacturer's protocol. ChIP grade anti-EGR1 (4153) or anti-Nanog antibody (5232) antibody from Cell Signaling Technology (Danvers, Mass.) was used to selectively precipitate the corresponding protein-DNA complex. RT-PCR was performed using ViiA 7 Real-Time PCR System (Applied Biosystems) to measure the relative amounts of ChIP DNA and results were quantified relative to inputs. The data are expressed as percentage of input. Following are primer sets: BIN3_Forward: 5′-[…]-3′ (SEQ ID NO:1); BIN3_Reverse: 5′-[…]-3′ (SEQ ID NO:2); EMP1_Forward: 5′-[…]-3′ (SEQ ID NO:3); EMP1_Reverse: 5′-[…]-3′ (SEQ ID NO:4).
Referring to FIG. 8A-D, EGF induces EGR1 activity and enrichment on the BIN3 promoter. […] Cells were transiently transfected with EGR1 firefly luciferase reporter vector and Renilla luciferase vector for 48 hours, EGF was added for additional 2 or 24 hours prior to measuring luciferase activity. […] Cells were treated with or without EGF for 24 hours. ChIP assay was performed as described elsewhere herein. IgG was used as negative control. […]

For another assay, the system named is glioma cells. Particulars: Ramnarain et al. 2006, cited from earlier work.
In assay [1] the test system is U251MG and U87MG cell lines. Kind of assay: Matrigel invasion assay in established GBM lines. The assay is classed as cell-based, human. Conditions: for cell invasion: EGF 50 ng/ml. The protocol:
Invasion status of cells was tested with Matrigel Boyden chamber assays (Fisher). 1×10^5 cells were plated on BD BioCoat Matrigel invasion chambers. 24 hours after treatment with drugs, invaded cells were stained with the HEMA-3 kit (Fisher). Invaded cells were counted in 4-5 random fields.
Referring to FIG. 6A-E, EGF inhibits EGFR overexpression induced cell invasion. […] Tetracycline induced EGFR overexpression was confirmed by Western blotting (FIG. 6E). The Western blot images are representative of three independent biological replicates. Actin served as loading control. Data are represented as mean±SEM from three independent experiments. **P<0.01, ***P<0.001, n.s. not significant, unpaired two-tailed t-test.

For the next assay, the system named is GBM12 cells. Briefly: Intravital microscopy of GBM cell motility through cranial window. Conditions: 10 ng EGF injected through cranial window 24 hours before imaging. The class given is in vivo, mice. The protocol: Two-photon laser intravital microscope combined with cranial window surgery was used to observe cellular movement in vivo. Female athymic nude mice were anesthetized with 2.5% isoflourane and secured in a stereotactic frame. The head was shaved and the scalp was cut in a circular manner. The periosteum was scraped and a drill was used to create a circular cranial window over the front and parietal bone. 10 μL of 1×10^6 cells/ml GBM12 stably expressing H2B-GFP were implanted at a depth of 0.5 mm. Following implantation, a 5 mm silicone-based polydimethylsiloxane (PDMS) coverslip was glued to the bone surrounding the cranial window. PDMS (SYLGARD184, Sigma-Aldrich) film was prepared as described by Heo et al. (Heo, et al. (2016) A soft, transparent, freely accessible cranial window for chronic imaging and electrophysiology, Sci Rep 6: 27818). PDMS coverslip allows for easy insertion of Hamilton needle into the brain tissue for EGF delivery. Dental cement was applied on the skull surface, covering the edge of the coverslip. Seven days after surgery and 24 hours prior to imaging procedure, 10 ng EGF or vehicle was injected into the mice brain through cranial window. […]
Referring to FIG. 14A and FIG. 14B, EGF reduces cell migration speed in vivo detected by intravital microscopy. […] The cell velocity of around 200 cells per mouse were evaluated. […]

A further assay deals with DOCK7. Kind of assay: GEF activity of DOCK7 (Cdc42 G15A agarose pull down). The class given is cell-based, human. Conditions: EGF, 24 hours; GBM12 and GBM6. On the procedure: To measure GEF activity of DOCK7, cell lysates were incubated with 40 μl Cdc42 G15A agarose beads (ab211185, Abcam) at 4° C. for 1 hour. The agarose beads were then washed boiled and the supernatants were used to immunoblot with DOCK7 antibody to determine levels of active DOCK7.

Protocol for HB-EGF: To determine EGFR ligands in medium, cells were serum starved for 48 hours, supernatants were collected and concentrated 5- to 10-fold with Pierce protein concentrator (ThermoFisher). HB-EGF, TGFα and EGF protein concentration in supernatant and tumor tissue extracts was determined by ELISA using the corresponding commercial HB-EGF, TGFα and EGF protein detection kits (ThermoFisher) per the manufacturer's instructions.

For `C[C@@H]1CCN(C(=O)CC#N)C[C@@H]1N(C)c1ncnc2[nH]ccc12` [tofacitinib], the HB-EGF in supernatant entry in the assay on HB-EGF was “upregulates”. In addition, the “phosphorylation of STAT3” value with STAT3 is recorded as “blocks phosphorylation”. For the same compound, in the assay on STAT1, the “phosphorylation of STAT1” value is “blocks phosphorylation”. Moreover, the upregulation of betacellulin entry in the assay with betacellulin is listed as “not found”.

For “EGF: Recombinant human EGF (AF-100) from Peprotech; EGFR ligand”, the cell invasion entry was “suppressed invasion” in the assay on Mayo PDX cells; “decreased invasion” in assay [1] (EGFR overexpressed in U87MG and U251MG); “increased invasiveness” in assay [1] (U251MG and U87MG with low endogenous EGFR). Moreover, in the assay with BIN3 promoter, the “EGR1 occupancy of BIN3 promoter” value is recorded as “occupies the BIN3 promoter”. Besides, the “BIN3 gene upregulation when EGF is added” value with glioma cells (EGFR overexpressing glioma cells) is 19.2 fold. Further, the “EGR1 gene induction with ligand-activated EGFR signaling” value in the assay with glioma cells is 13.68 fold. Moreover, in assay [1] (tetracycline induced EGFR overexpressing U251MG cells, plus EGF), the “invasion increased by inducible EGFRwt expression” value was “abolished”. Further, the “movement of glioma cells in live mouse brain” value in the assay on GBM12 cells is given as “almost complete cessation of movement”. The DOCK7 activity entry in the assay on DOCK7 is “decreased activity”.
